Among the data in ChEMBL document CHEMBL1137683, “Synthesis and in vitro cysticidal activity of new benzimidazole derivatives” (Eur J Med Chem, 2009) are Activity and logP values, retold here.

In data set [1] the test system is Taenia crassiceps. As to the kind of experiment: Antiparasitic activity against Taenia crassiceps cysts ORF strain assessed as cysts mortality at 0.28 uM after 11 days by Trypan blue exclusion test. Type of data set: functional.
A short description of data set [2]: Octanol-water partition coefficient, log P of the compound. Type of data set: physicochemical.
Data set [3] concerns Taenia crassiceps. The data set can be described thus: Antiparasitic activity against Taenia crassiceps cysts ORF strain assessed as cysts mortality at 1.70 uM after 11 days by Trypan blue exclusion test. Type of data set: functional.
The test system of data set [4] is Taenia crassiceps. As to the kind of experiment: Antiparasitic activity against Taenia crassiceps cysts WFU strain assessed as cysts mortality at 1.70 uM after 11 days by Trypan blue exclusion test. Type of data set: functional.
For data set [5], the system named is Taenia crassiceps. As to the kind of experiment: Antiparasitic activity against Taenia crassiceps cysts WFU strain assessed as cysts mortality at 0.28 uM after 11 days by Trypan blue exclusion test. It is filed as functional.

By logP is commonly meant a log measure of how a compound divides between an organic and an aqueous phase. Consider `CNC(=O)c1ccc2[nH]c(NC(=O)OC)nc2c1`, for which the Activity in the data set with Taenia crassiceps [1] and with Taenia crassiceps [3] was 0% each time. This molecule also came in with a logP in data set [2] of 0.68.
As for `COC(=O)Nc1nc2cc(C(=O)N3CCCCC3)ccc2[nH]1`, the Activity with Taenia crassiceps [4] is 16.7%; in the data set with Taenia crassiceps [1], 37%; in the data set on Taenia crassiceps [5], 9.3%; in the data set with Taenia crassiceps [3], 62%. In data set [2], this molecule registered a logP of 1.65.
With `COC(=O)Nc1nc2cc(Oc3cccc4ccccc34)c(Cl)cc2[nH]1`, the logP in data set [2] is 3.56.
For `COC(=O)Nc1nc2cc(C(=O)OCc3ccc([N+](=O)[O-])cc3)ccc2[nH]1`, the Activity was 26% in the data set with Taenia crassiceps [4], 41% in the data set on Taenia crassiceps [1], 22.6% with Taenia crassiceps [5] and 68% in the data set on Taenia crassiceps [3]. For the same molecule, the logP in data set [2] is 3.12.
Turning to `CSc1nc2cc(C(=O)N3CCN(C)CC3)ccc2[nH]1`, the Activity with Taenia crassiceps [1] and in the data set on Taenia crassiceps [3] was 0% in each case.
`CSc1nc2cc(C(=O)N3CCCCC3)ccc2[nH]1`: the Activity in the data set with Taenia crassiceps [1] and in the data set on Taenia crassiceps [3] was 0% in each case.
For `CSc1nc2cc(C(=O)N3CCCCC3)c(Cl)cc2[nH]1`, the Activity with Taenia crassiceps [1] and in the data set on Taenia crassiceps [3] was 0% each time.
Take `CCCSc1ccc2[nH]c(N(C)C(=O)OC)nc2c1`: the Activity in the data set with Taenia crassiceps [1] and with Taenia crassiceps [3] was 0% in each case.
Consider `CCCSc1ccc2nc(NC(=O)OC)n(C)c2c1`, for which the Activity in the data set on Taenia crassiceps [1] and with Taenia crassiceps [3] was 0% each time.
Take `CCCSc1ccc2c(c1)nc(NC(=O)OC)n2C`: the Activity in the data set with Taenia crassiceps [1] and with Taenia crassiceps [3] was 0% each time.
Turning to `CSc1nc2cc(C(=O)N3CCC(C)CC3)ccc2[nH]1`, the Activity in the data set with Taenia crassiceps [1] and in the data set on Taenia crassiceps [3] was 0% in each case.
Regarding `CSc1nc2cc(C(=O)N3CCC(C)CC3)c(Cl)cc2[nH]1`, the Activity in the data set on Taenia crassiceps [1] and in the data set with Taenia crassiceps [3] was 0% each time.
With `COC(=O)Nc1nc2cc(Cl)ccc2[nH]1`, the Activity is reported as 8% with Taenia crassiceps [4], 15% in the data set on Taenia crassiceps [1], 5% in the data set with Taenia crassiceps [5] and 23% with Taenia crassiceps [3]. The same molecule gave a logP in data set [2] of 2.09.
For `CCC[S+]([O-])c1ccc2[nH]c(NC(=O)OC)nc2c1` (stereo not given) [ALBENDAZOLE OXIDE] the same measures were 35%, 46%, 25%, 88% and 1.54.
